A short description of data set [1]: Redox potential measurement against Ag/AgCl reference electrode. The conditions noted are these: for Redox potential: urea-H2O2 with H2O2 content of 15%. Format: physicochemical.
A short description of data set [2]: pH of the agent solutions. Type of data set: physicochemical.
The nature of data set [3]: Terbinafine diffusion study (ChubTur diffusion cell). Type of data set: in vitro ADME, human. The method, then: Human nail samples (full thickness) of ca. 3 mm diameter were positioned between the two halves of the specifically designed ChubTur™ diffusion cell and clamped together. The receptor compartment was filled with a previously sonicated suitable buffer system to ensure sink conditions and the cells were fixed on a perspex holder mounted on a magnetic stirrer in a water bath maintained at 32° C. The receptor chamber contents were continuously agitated by small PTFE-coated magnetic followers driven by a submersible magnetic stirrer. A known amount of formulation/drug solution was applied to the surface of the nail (infinite dose) and at regular time intervals samples of buffer were taken from the receptor compartment, replaced with fresh receptor medium and assayed for drug content using HPLC.

Setting [4] is: DTT concentration 0.005 % w/w, n = 2.
[5] abbreviates: DTT concentration 0.01 % w/w, n = 2.
[6] abbreviates: DTT concentration 0.05 % w/w, n = 2.
The mark [7] stands for this setting: DTT concentration 0.1 % w/w, n = 2.
Where [8] appears, read: DTT concentration 1 % w/w, n = 2.
Setting [9] is: DTT concentration 5 % w/w, n = 2.
Setting [10] is: DTT concentration 7.5 % w/w, n = 2.
Setting [11] is: DTT concentration 10 % w/w, n = 2.
[12] abbreviates: H2O2 concentration 0.005 % w/w, n = 3.
Setting [13] is: H2O2 concentration 0.01 % w/w, n = 3.
Where [14] appears, read: H2O2 concentration 0.05 % w/w, n = 3.
The mark [15] stands for this setting: H2O2 concentration 0.1 % w/w, n = 3.
Setting [16] is: H2O2 concentration 1 % w/w, n = 3.
The mark [17] stands for this setting: H2O2 concentration 10 % w/w, n = 3.
[18] abbreviates: H2O2 concentration 20 % w/w, n = 3.
The mark [19] stands for this setting: H2O2 concentration 30 % w/w, n = 3.
The mark [20] stands for this setting: H2O2 concentration 32.5 % w/w, n = 3.
Setting [21] is: H2O2 concentration 35 % w/w, n = 3.
The mark [22] stands for this setting: Urea-H2O2, H2O2 content 0.0025 % w/w, n = 3.
[23] abbreviates: Urea-H2O2, H2O2 content 0.005 % w/w, n = 3.
[24] abbreviates: Urea-H2O2, H2O2 content 0.025 % w/w, n = 3.
Where [25] appears, read: Urea-H2O2, H2O2 content 0.05 % w/w, n = 3.
[26] abbreviates: Urea-H2O2, H2O2 content 0.5 % w/w, n = 3.
Where [27] appears, read: Urea-H2O2, H2O2 content 5 % w/w, n = 3.
The mark [28] stands for this setting: Urea-H2O2, H2O2 content 10 % w/w, n = 3.
[29] abbreviates: Urea-H2O2, H2O2 content 15 % w/w, n = 3.
Where [30] appears, read: Urea-H2O2, H2O2 content 16.25 % w/w, n = 3.
[31] abbreviates: Urea-H2O2, H2O2 content 17.5 % w/w, n = 3.

As for `O[C@@H](CS)[C@@H](O)CS` (racemic) [DTT, 1,4-dithio-DL-threitol], the “Mean Redox Potential” value is −241.0 mV in data set [1] (0.5M concentration, n = 3); −122.7 in data set [1] (setting [4]); −134.9 in data set [1] (setting [5]); −169.19 in data set [1] (setting [6]); −189.65 in data set [1] (setting [7]); −185.75 in data set [1] (setting [8]). In addition, the Mean Redox Potential is −201.25 in data set [1] (setting [9]), −209.65 in data set [1] (setting [10]) and −193.1 in data set [1] (setting [11]). The “Mean pH” value was found to be 2.64 in data set [2] (0.5M concentration, n = 3); 8.07 in data set [2] (setting [4]); 8.00 in data set [2] (setting [5]); 7.80 in data set [2] (setting [6]); 7.59 in data set [2] (setting [7]); 7.01 in data set [2] (setting [8]). For the same molecule, the entries for the “Mean pH” value in data set [2] (setting [9]), in data set [2] (setting [10]) and in data set [2] (setting [11]) were 6.20, 6.24 and 5.69, respectively.

Take `N.O=C(O)CS` [Ammonium thioglycolate]: the “Mean Redox Potential” value in data set [1] (0.5M concentration, n = 3) was −235.9 mV. Further, the “Mean pH” value in data set [2] (0.5M concentration, n = 3) is 6.29.

Consider `O=C([O-])CS.O=C([O-])CS.[Ca+2]` [Calcium thioglycolate], for which the “Mean Redox Potential” value in data set [1] (0.5M concentration, n = 3) is recorded as −531.3 mV. Further, in data set [2] (0.5M concentration, n = 3), the “Mean pH” value came to 11.74. Besides, the “pH of solution prior to application” value in data set [2] (5% concentration, solution applied to nail (FIG. 7)) was found to be 11.43.

For the molecule `CC12CCC(CC1)C(C)(C)O2` [Cineol], in data set [1] (0.5M concentration, n = 3), the “Mean Redox Potential” value came to 67.2 mV. Besides, the “Mean pH” value in data set [2] (0.5M concentration, n = 3) turned out to be 5.91.

On to `Cl.N[C@@H](CS)C(=O)O.O` [Cysteine, L-Cysteine hydrochloride hydrate], for which, in data set [1] (0.5M concentration, n = 3), the “Mean Redox Potential” value is listed as −79.3 mV.

On to `O=C(O)CO` [Glycolic acid], for which the “Mean Redox Potential” value in data set [1] (0.5M concentration, n = 3) is reported as 247.7 mV. For the same molecule, the “Mean pH” value in data set [2] (0.5M concentration, n = 3) amounted to 2.03.

`OO` [Hydrogen peroxide]: the “Mean Redox Potential” value in data set [1] (0.5M concentration, n = 3) was 277.3 mV; in data set [1] (setting [12]), 142.3; in data set [1] (setting [13]), 153.0; in data set [1] (setting [14]), 200.4; in data set [1] (setting [15]), 193.5; in data set [1] (setting [16]), 231.6. The Mean Redox Potential in data set [1] (setting [17]) turned out to be 357.2; in data set [1] (setting [18]), 402.8; in data set [1] (setting [19]), 430.4; in data set [1] (setting [20]) it was 437.9; in data set [1] (setting [21]), 444.5. Moreover, the “Mean pH” value in data set [2] (0.5M concentration, n = 3) stood at 6.21; in data set [2] (setting [12]), 7.56; in data set [2] (setting [13]), 7.46; in data set [2] (setting [14]), 6.78; in data set [2] (setting [15]), 6.71; in data set [2] (setting [16]), 6.17. Also, the “Mean pH” value in data set [2] (setting [17]) worked out at 3.79; in data set [2] (setting [18]), 3.16; in data set [2] (setting [19]) it was 2.64; in data set [2] (setting [20]) it was 2.54; in data set [2] (setting [21]), 2.55.

Turning to `O=C(O)C(=O)O` [Oxalic acid], the “Mean Redox Potential” value in data set [1] (0.5M concentration, n = 3) is 254.8 mV. Besides, the “Mean pH” value in data set [2] (0.5M concentration, n = 3) turned out to be 1.33.

For `O=S(=O)([O-])OOS(=O)(=O)[O-].[K+].[K+]` [Potassium persulphate], in data set [1] (0.5M concentration, n = 3), the “Mean Redox Potential” value is reported as 402.5 mV. Moreover, the “Mean pH” value in data set [2] (0.5M concentration, n = 3) is 2.83.

As for `Oc1cccc(O)c1` [Resorcinol], the “Mean Redox Potential” value in data set [1] (0.5M concentration, n = 3) was 8.6 mV. The “Mean pH” value in data set [2] (0.5M concentration, n = 3) was found to be 5.67.

Take `O=C([O-])CS.[Na+]` [Sodium thioglycolate]: the “Mean Redox Potential” value in data set [1] (0.5M concentration, n = 3) was −281.7 mV. In addition, in data set [2] (0.5M concentration, n = 3), the “Mean pH” value turned out to be 6.90.

For `O=c1cc[nH]c(=S)[nH]1` [Thiouracil], the “Mean Redox Potential” value in data set [1] (0.5M concentration, n = 3) was found to be 53.4 mV. For the same molecule, the “Mean pH” value in data set [2] (0.5M concentration, n = 3) is given as 6.28.

For the molecule `NC(N)=O.OO` [Urea hydrogen Peroxide, Urea hydrogen peroxide addition compound], the “Mean Redox Potential” value is reported as 349.7 mV in data set [1] (0.5M concentration, n = 3); 189.4 mV in data set [1] (setting [22]); 191.3 mV in data set [1] (setting [23]); 199.5 mV in data set [1] (setting [24]); 208.1 mV in data set [1] (setting [25]); 293.6 mV in data set [1] (setting [26]). Besides, the “Mean Redox Potential” value in data set [1] (setting [27]) is reported as 372.3 mV; in data set [1] (setting [28]) it was 377.9 mV; in data set [1] (setting [29]), 380.3 mV; in data set [1] (setting [30]), 382.9 mV; in data set [1] (setting [31]), 382.3 mV. The Redox potential in data set [1] (approximate pH 2 (adjusted using HCl and NaOH), n = 3) was 459.8 mV; in data set [1] (approximate pH 4 (adjusted using HCl and NaOH), n = 3) it was 334.1 mV; in data set [1] (approximate pH 6 (adjusted using HCl and NaOH), n = 3) it was 284.0 mV; in data set [1] (approximate pH 8 (adjusted using HCl and NaOH), n = 3), 194.2 mV; in data set [1] (approximate pH 10 (adjusted using HCl and NaOH), n = 3) it was 16.1 mV. Also, the “Mean pH” value in data set [2] (0.5M concentration, n = 3) is recorded as 2.72; in data set [2] (setting [22]), 6.07; in data set [2] (setting [23]), 6.17; in data set [2] (setting [24]), 6.56; in data set [2] (setting [25]) it was 6.81; in data set [2] (setting [26]), 5.31. In addition, the “Mean pH” value in data set [2] (setting [27]) is recorded as 5.10; in data set [2] (setting [28]) it was 4.23; in data set [2] (setting [29]), 4.04; in data set [2] (setting [30]), 3.87; in data set [2] (setting [31]), 3.33.

For the molecule `O=C(O)/C=C/c1ccc(O)cc1` [p-coumaric acid], the “Mean Redox Potential” value in data set [1] (0.5M concentration, n = 3) was 114.1 mV. In addition, the “Mean pH” value in data set [2] (0.5M concentration, n = 3) was determined as 3.54.

Consider `CN(C/C=C/C#CC(C)(C)C)Cc1cccc2ccccc12` [terbinafine], for which the “amount of drug penetrated the nail” value in data set [3] (nails soaked in 50:50 ethanol/water (control) for 20 h before drug, after 214 h) worked out at 44±13 μg per cm^2. Besides, the “amount of drug penetrating the nail” value in data set [3] (pre-treatment with TA then urea-H2O2 for 30 min) is given as “less than 10 μg per cm^2”; in data set [3] (pre-treatment with TA then urea-H2O2 for 1 h), “less than 10 μg per cm^2”; in data set [3] (pre-treatment with thioglycolic acid alone) it was 861±135 μg per cm^2; in data set [3] (pre-treatment with urea-hydrogen peroxide alone) it was 47±33 μg per cm^2; in data set [3] (thioglycolic acid and urea-H2O2 applied sequentially prior to terbinafine, after 219 h), 2308±1332 μg per cm^2. Moreover, the “amount of terbinafine penetrating the human nail” value in data set [3] (pre-treatment with TA then urea-H2O2 for up to 20 h each, after 315 h) turned out to be 3329±1842 μg per cm^2. In addition, the “effect of pre-treatment on the amount of drug penetrating the nail” value in data set [3] (pre-treatment with urea-hydrogen peroxide versus control, p>0.05, ANOVA) was “no significant effect”.

For the origin of these results see patent US20080207537A1, “Topical Ungual Formulations” (priority 2005, published 2008).
